Test results as given in publication PMC7576278, “IKKε and TBK1 in diffuse large B‐cell lymphoma: A possible mechanism of action of an IKKε/TBK1 inhibitor to repress NF‐κB and IL‐10 signalling” (Journal of Cellular and Molecular Medicine, 2020).

Key:
IKKε = molecular target: T1, IKKε (Homo sapiens, UniProt Q14164); test: purified enzyme inhibition (pIC50; assay details not given); type: biochemical
T1 construct: gene IKBKE
T1 sequence (Q14164 1-716): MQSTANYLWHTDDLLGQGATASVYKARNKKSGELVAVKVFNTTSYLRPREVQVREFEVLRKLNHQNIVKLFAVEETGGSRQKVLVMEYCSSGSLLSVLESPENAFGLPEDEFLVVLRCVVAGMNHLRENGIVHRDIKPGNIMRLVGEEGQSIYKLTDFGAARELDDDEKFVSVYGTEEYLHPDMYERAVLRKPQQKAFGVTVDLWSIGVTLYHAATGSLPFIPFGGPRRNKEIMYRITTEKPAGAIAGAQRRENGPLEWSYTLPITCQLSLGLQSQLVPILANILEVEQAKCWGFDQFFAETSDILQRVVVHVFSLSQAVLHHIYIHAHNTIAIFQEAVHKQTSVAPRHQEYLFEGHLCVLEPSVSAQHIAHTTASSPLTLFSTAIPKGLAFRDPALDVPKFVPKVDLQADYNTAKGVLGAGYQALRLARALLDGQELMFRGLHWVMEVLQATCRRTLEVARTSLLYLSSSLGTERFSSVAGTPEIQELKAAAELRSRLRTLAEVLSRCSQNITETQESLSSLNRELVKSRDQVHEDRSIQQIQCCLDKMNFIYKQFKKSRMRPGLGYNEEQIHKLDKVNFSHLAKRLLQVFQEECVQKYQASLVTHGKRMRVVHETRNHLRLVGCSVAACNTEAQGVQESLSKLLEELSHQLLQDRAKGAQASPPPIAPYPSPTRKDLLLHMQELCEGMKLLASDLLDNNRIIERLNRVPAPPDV

TBK1 = molecular target: T2, TBK1 (Homo sapiens, UniProt Q9UHD2); test: as above; type: biochemical
T2 sequence (Q9UHD2 1-729): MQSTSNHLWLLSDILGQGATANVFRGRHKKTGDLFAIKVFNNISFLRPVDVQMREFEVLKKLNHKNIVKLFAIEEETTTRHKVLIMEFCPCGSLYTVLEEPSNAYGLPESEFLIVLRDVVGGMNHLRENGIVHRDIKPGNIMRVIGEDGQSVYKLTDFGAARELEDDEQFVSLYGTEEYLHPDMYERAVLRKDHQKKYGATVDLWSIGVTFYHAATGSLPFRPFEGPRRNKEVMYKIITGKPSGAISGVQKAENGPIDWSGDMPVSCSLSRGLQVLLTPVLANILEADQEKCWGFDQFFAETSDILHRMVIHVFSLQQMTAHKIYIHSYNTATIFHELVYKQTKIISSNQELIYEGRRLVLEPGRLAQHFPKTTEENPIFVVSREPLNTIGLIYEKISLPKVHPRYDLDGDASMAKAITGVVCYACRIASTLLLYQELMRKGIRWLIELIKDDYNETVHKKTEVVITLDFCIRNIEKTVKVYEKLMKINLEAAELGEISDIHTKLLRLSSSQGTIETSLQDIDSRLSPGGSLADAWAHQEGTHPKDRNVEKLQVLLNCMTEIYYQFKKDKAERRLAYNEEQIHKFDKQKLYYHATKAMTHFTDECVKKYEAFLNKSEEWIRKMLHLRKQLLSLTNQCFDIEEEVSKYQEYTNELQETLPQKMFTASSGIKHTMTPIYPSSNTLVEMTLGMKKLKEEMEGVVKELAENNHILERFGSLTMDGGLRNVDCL

- IC50 (IKKε): 0.0158 µM
- IC50 (TBK1): 0.0126 µM
SMILES: N#Cc1cc(-c2ccnc(Nc3ccc(NC(=O)CN4CCOCC4)nc3)n2)cnc1N1CC[C@H](F)C1 [DMX3433]
